Molecules are shown by their SMILES. pKi: −log10 of the molar value.

Data on one compound can be found in BindingDB's records for doi:10.1016/0960-894X(95)00037-T (1995).

Test [1] addresses T1, B2 bradykinin receptor (Homo sapiens, UniProt P30411).
T1 sequence (P30411 whole entry): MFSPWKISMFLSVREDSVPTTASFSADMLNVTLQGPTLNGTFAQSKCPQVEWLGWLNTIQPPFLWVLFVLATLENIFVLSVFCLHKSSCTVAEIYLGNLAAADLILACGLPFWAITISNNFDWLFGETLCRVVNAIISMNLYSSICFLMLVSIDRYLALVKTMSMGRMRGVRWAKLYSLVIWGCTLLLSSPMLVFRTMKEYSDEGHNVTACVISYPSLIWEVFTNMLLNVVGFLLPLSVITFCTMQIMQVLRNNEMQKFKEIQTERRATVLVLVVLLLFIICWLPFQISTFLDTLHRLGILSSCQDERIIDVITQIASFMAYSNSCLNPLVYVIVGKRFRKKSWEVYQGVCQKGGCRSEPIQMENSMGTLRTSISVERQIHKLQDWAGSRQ
The experiment in a line: (§1) Tested for binding affinity against human IMR-90 Bradykinin receptor B2.

Test [2] deals with T1, B2 bradykinin receptor. The experiment in a line: ChEBML_40431.
Description: as §1

For `CCCC[P+](CCCC)(CCCC)Cc1ccc(NC(=O)C2Cc3ccccc3CN2C(=O)[C@H](CCc2ccccc2)N/C(=N/C2CCCCC2)NC2CCCCC2)cc1` (stereo partly drawn) [tributyl[(4-{2-[(2S)-2-{[(1E)-(cyclohexylamino)(cyclohexyliminiumyl)methyl]amino}-4-phenylbutanoyl]-1,2,3,4-tetrahydroisoquinoline-3-amido}phenyl)methyl]phosphanium dichloride], the pKi at B2 bradykinin receptor [1] and on B2 bradykinin receptor [2] was 6.00 in each case.
